For 1 compound, IC50 results are on record in patent US7384950B2, “Thienopyrimidinediones and their use in the modulation of autoimmune disease” (AstraZeneca AB, priority 2001, dated 2008).

pIC50: −log10 of the molar value.

The test system of the assay is PMA/ionomycin-stimulated peripheral blood mononuclear cell (PBMC). Nature of the assay: Inhibition of PMA/ionomycin-stimulated peripheral blood mononuclear cell proliferation. The class given is cell-based. The settings on record: human PBMC from a single donor, 10% human serum, PMA 0.5 ng/ml and ionomycin 500 ng/ml, 72 hours, 3H-thymidine incorporation; read-out: IA50 (the source's name). The procedure: The ability of compounds which can inhibit PMA/ionomycin-stimulated peripheral blood mononuclear cell proliferation can be assessed, for example using the procedure set out below:
Inhibition of PMA/ionomycin-stimulated Peripheral Blood Mononuclear Cell Proliferation
The assay for PMA/ionomycin-stimulated PBMC proliferation was performed in 96-well flat bottomed microtitre plates. Compounds were prepared as 10 mM stock solutions in dimethyl sulfoxide. A 50-fold dilution of this was prepared in RPMI and serial dilutions were prepared from this solution. 10 μl of the 50-fold diluted stock, or dilutions of it, were added to the well to give concentrations in the assay starting at 9.5 μM and going down. Into each well was placed 1×10^5 PBMC, prepared from human peripheral blood from a single donor, in RPMI1640 medium supplemented with 10% human serum, 2 mM glutamine and penicillin/streptomycin. Phorbol myristate acetate (PMA) (0.5 ng/ml final concentration) and ionomycin (500 ng/ml final concentration) were added to these cells in supplemented RPMI1640 medium (as above) so that the final volume of the assay was 0.2 ml. […] The level of radioactivity incorporated by the cells was then determined and this is a measure of proliferation.
(In general: Uptake of a labelled nucleoside into DNA is a usual measure of proliferation.)

As for `CC(C)n1c(=O)n(C)c(=O)c2c(C(=O)N3C[C@H](O)CO3)c(Cc3ccnc4ccccc34)sc21` [Example 20, (S) 5-{4-Hydroxyisoxazolidin-2-ylcarbonyl}-3-methyl-1-(isopropyl)-6-(4-quinolinylmethyl)thieno[2,3-d]pyrimidine-2,4(1H,3H)-dione], the pIC50 was 8.30.
